Measured values as given in ChEMBL document CHEMBL4507326, “Data for DCP probe TP-030-2” (2021).

Legend:
[1] = molecular target: Sigma intracellular receptor 2 (Homo sapiens, UniProt Q5BJF2); assay: GPCRScan assay: inhibition of Sigma 2; parameters: radioligand conc. used [nm] 5.0, parental cells HEKT
[2] = molecular target: L-type calcium channel, benzothiazepine site (Cav1.2 alpha-1C) (Homo sapiens, UniProt Q13936); assay: Inhibition of Calcium Channel L-Type, Benzothiazepine at 10 µM in the Eurofins-Panlabs radioligand binding assay (Eurofins_assay_214510); parameters: ligand concentration 2 nM, non-specific ligand with concentration 10 µM Diltiazem, incubation time 3h, incubation temperature 4 °C; conditions: male, Wistar, rat, rat whole brain preparation, probe [3H] Diltiazem; compound concentration 10 uM; target entry is the homologue from another species
[3] = molecular target: L-type calcium channel, dihydropyridine site (Cav1.2 alpha-1C) (Homo sapiens, UniProt Q13936); assay: Inhibition of Calcium Channel L-Type, Dihydropyridine at 10 µM in the Eurofins-Panlabs radioligand binding assay (Eurofins_assay_214600); parameters: ligand concentration 0.1 nM, non-specific ligand with concentration 1 µM Nitrendipine, incubation time 90 min, incubation temperature 25 °C; conditions: Wistar, rat, rat cerebral cortex preparation, probe [3H] Nitrendipine; compound concentration 10 uM; target entry is the homologue from another species
Rattus norvegicus = species on record: Rattus norvegicus; assay: Inhibition of Imidazoline I2, Central at 10 µM in the Eurofins-Panlabs radioligand binding assay (Eurofins_assay_241000); parameters: ligand concentration 2 nM; conditions: Compound concentration 10.0 uM
[4] = molecular target: D(1B) dopamine receptor (Homo sapiens) (UniProt P21918); assay: Dopamine D5 Eurofins-Panlabs radioligand binding assay; conditions: Compound concentration 10.0 uM
Activin receptor type-2A = Activin receptor type-2A (Homo sapiens, UniProt P27037); assay: ACtR2(AC2ALGE1) Takeda global kinase panel
[5] = molecular target: Cyclin-dependent kinase 16 (Homo sapiens, UniProt Q00536); assay: PCTAIRE1(CD16SGS1) Takeda global kinase panel
[6] = molecular target: Casein kinase I isoform alpha-like (Homo sapiens, UniProt Q8N752); assay: CK1alpha2(C1ALLGI5) Takeda global kinase panel
[7] = molecular target: Casein kinase I isoform delta (Homo sapiens, UniProt P48730); assay: CK1delta(CS1DLGI1) Takeda global kinase panel
[8] = molecular target: Casein kinase I isoform gamma-2 (Homo sapiens, UniProt P78368); assay: CK1gamma2(C1G2LGI1) Takeda global kinase panel
[9] = molecular target: Casein kinase II subunit alpha' (Homo sapiens, UniProt P19784); assay: CK2alpha2(C2A2LGK1) Takeda global kinase panel
[10] = molecular target: Death-associated protein kinase 1 (Homo sapiens, UniProt P53355); assay: DAPK1(DAP1LGF1) Takeda global kinase panel
[11] = molecular target: Epidermal growth factor receptor (Homo sapiens, UniProt P00533); assay: EGFR(EGFRMGB1) Takeda global kinase panel
[12] = molecular target: Eukaryotic translation initiation factor 2-alpha kinase 3 (Homo sapiens, UniProt Q9NZJ5); assay: PERK [PEK(EIK3CGQ1)] Takeda global kinase panel
[13] = molecular target: Cyclin-G-associated kinase (Homo sapiens, UniProt O14976); assay: GAK(GAK1PGF1) Takeda global kinase panel
[14] = molecular target: Homeodomain-interacting protein kinase 1 (Homo sapiens, UniProt Q86Z02); assay: HIPK1(HIP1LGF1) Takeda global kinase panel
[15] = molecular target: Tyrosine-protein kinase Lck (Homo sapiens, UniProt P06239); assay: Lck(LCK1LGF1) Takeda global kinase panel
[16] = molecular target: Mitogen-activated protein kinase kinase kinase 14 (Homo sapiens, UniProt Q99558); assay: NIK(M314LGP1) Takeda global kinase panel
[17] = molecular target: Mitogen-activated protein kinase 4 (Homo sapiens, UniProt P31152); assay: ERK4(MAP4LGY1) Takeda global kinase panel
[18] = molecular target: MAP kinase-activated protein kinase 2 (Homo sapiens, UniProt P49137); assay: MAPKAPK2(MPK2LGRH) Takeda global kinase panel
[19] = molecular target: Serine/threonine-protein kinase MARK2 (Homo sapiens, UniProt Q7KZI7); assay: MARK2(MAR2LGY1) Takeda global kinase panel
[20] = molecular target: Mixed lineage kinase domain-like protein (Homo sapiens, UniProt Q8NB16); assay: MLKL(MLKLPHY1) Takeda global kinase panel
[21] = molecular target: Serine/threonine-protein kinase Nek5 (Homo sapiens, UniProt Q6P3R8); assay: Nek5(NEK5LGRD) Takeda global kinase panel
[22] = molecular target: Serine/threonine-protein kinase PINK1, mitochondrial (Homo sapiens, UniProt Q9BXM7); assay: PINK1(PIN1PHRE) Takeda global kinase panel
[23] = molecular target: Calcium/calmodulin-dependent protein kinase type 1B (Homo sapiens, UniProt Q6P2M8); assay: CaMK1beta(PNCKLGRI) Takeda global kinase panel
[24] = molecular target: 5'-AMP-activated protein kinase catalytic subunit alpha-2 (Homo sapiens, UniProt P54646); assay: AMPKalpha2(PRA2LGY1) Takeda global kinase panel
[25] = molecular target: Protein kinase C zeta type (Homo sapiens, UniProt Q05513); assay: PKCzeta(PRKZLGP1) Takeda global kinase panel
SRSF protein kinase 3 = SRSF protein kinase 3 (Homo sapiens, UniProt Q9UPE1); assay: MSSK1(SRP3MHRL) Takeda global kinase panel
[26] = molecular target: Serine/threonine-protein kinase 3 (Homo sapiens, UniProt Q13188); assay: MST2(STK3LGF1) Takeda global kinase panel
[27] = molecular target: Tyrosine-protein kinase SYK (Homo sapiens, UniProt P43405); assay: Syk(SYK1LHY1) Takeda global kinase panel
[28] = molecular target: Serine/threonine-protein kinase TAO3 (Homo sapiens, UniProt Q9H2K8); assay: TAO3(TAO3LGY1) Takeda global kinase panel
[29] = molecular target: Tyrosine-protein kinase TXK (Homo sapiens, UniProt P42681); assay: TXK(TXK1CGD5) Takeda global kinase panel
[30] = molecular target: Serine/threonine-protein kinase ULK3 (Homo sapiens, UniProt Q6PHR2); assay: ULK3(ULK3LGF1) Takeda global kinase panel
[31] = molecular target: Myosin light chain kinase family member 4 (Homo sapiens, UniProt Q86YV6); assay: SgK085(SG85LGY1) Takeda global kinase panel
[32] = molecular target: Uncharacterized serine/threonine-protein kinase SBK3 (Homo sapiens, UniProt P0C264); assay: SgK110(SG10LGF1) Takeda global kinase panel
[33] = molecular target: Sodium-dependent noradrenaline transporter (Homo sapiens) (UniProt P23975); conditions: Compound concentration 10.0 uM
[34] = molecular target: Histamine H4 receptor (Homo sapiens) (UniProt Q9H3N8); conditions: Compound concentration 10.0 uM
[35] = molecular target: T1, GABA-A receptor; anion channel (Rattus norvegicus) (UniProt O09028+P15431+P18506+P18508+P19969+P20236+P23574+P23576+P28471+P28473+P30191+P62813+P63079+P63138+Q91ZM7+Q9ES14); conditions: Compound concentration 10.0 uM
[36] = molecular target: T1, GABA-A receptor; anion channel (Rattus norvegicus); conditions: Compound concentration 10.0 uM; remark: listed apart in the source
[37] = molecular target: Androgen receptor (Homo sapiens) (UniProt P10275); conditions: Compound concentration 10.0 uM

Sigma intracellular receptor 2, sequence (Q5BJF2 whole entry): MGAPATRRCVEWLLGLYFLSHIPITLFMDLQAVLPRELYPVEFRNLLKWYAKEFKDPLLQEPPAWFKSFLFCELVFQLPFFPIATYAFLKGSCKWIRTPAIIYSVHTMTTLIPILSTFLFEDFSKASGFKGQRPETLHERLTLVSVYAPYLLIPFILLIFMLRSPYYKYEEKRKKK
Serine/threonine-protein kinase PINK1, mitochondrial, sequence (Q9BXM7 whole entry): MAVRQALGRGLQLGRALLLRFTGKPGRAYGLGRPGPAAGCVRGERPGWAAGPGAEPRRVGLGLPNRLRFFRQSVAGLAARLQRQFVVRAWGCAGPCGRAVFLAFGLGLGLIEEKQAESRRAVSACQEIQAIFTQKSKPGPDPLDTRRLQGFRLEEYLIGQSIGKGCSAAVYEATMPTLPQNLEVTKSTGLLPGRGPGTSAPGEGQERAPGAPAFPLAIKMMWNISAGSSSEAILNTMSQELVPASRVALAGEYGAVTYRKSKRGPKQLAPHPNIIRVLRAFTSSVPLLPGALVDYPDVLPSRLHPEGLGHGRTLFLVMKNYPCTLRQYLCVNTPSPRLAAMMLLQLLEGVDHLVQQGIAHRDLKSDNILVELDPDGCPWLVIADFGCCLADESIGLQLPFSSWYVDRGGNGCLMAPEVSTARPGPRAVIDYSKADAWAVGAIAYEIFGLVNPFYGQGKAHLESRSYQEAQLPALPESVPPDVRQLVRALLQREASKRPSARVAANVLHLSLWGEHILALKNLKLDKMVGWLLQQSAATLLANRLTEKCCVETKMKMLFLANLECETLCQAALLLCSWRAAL
Mitogen-activated protein kinase 4, sequence (P31152 whole entry): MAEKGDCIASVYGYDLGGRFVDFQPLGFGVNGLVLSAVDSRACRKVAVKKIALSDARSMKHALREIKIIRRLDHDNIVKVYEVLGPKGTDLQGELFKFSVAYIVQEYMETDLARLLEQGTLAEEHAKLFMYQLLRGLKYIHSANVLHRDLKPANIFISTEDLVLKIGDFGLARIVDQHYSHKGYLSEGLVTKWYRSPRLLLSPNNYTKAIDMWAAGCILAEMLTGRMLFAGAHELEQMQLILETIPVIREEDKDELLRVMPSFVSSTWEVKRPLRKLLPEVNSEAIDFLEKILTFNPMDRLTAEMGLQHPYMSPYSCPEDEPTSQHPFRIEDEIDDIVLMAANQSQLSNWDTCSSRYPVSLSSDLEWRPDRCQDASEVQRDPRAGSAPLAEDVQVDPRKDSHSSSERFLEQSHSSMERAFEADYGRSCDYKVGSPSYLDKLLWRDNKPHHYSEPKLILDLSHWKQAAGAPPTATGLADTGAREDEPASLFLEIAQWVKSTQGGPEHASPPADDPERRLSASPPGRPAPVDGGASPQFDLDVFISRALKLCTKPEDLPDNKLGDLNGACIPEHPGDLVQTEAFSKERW
Uncharacterized serine/threonine-protein kinase SBK3, sequence (P0C264 whole entry): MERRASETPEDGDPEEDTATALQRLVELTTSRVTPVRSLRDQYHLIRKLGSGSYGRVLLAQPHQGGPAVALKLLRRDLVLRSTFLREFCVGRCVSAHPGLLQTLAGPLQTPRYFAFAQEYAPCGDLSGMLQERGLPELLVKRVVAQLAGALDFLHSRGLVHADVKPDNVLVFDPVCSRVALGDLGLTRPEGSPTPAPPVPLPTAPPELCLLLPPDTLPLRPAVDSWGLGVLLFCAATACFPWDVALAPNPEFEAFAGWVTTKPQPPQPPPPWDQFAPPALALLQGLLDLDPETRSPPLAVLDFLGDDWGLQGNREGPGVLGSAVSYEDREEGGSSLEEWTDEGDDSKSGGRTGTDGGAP
Serine/threonine-protein kinase TAO3, sequence (Q9H2K8 whole entry): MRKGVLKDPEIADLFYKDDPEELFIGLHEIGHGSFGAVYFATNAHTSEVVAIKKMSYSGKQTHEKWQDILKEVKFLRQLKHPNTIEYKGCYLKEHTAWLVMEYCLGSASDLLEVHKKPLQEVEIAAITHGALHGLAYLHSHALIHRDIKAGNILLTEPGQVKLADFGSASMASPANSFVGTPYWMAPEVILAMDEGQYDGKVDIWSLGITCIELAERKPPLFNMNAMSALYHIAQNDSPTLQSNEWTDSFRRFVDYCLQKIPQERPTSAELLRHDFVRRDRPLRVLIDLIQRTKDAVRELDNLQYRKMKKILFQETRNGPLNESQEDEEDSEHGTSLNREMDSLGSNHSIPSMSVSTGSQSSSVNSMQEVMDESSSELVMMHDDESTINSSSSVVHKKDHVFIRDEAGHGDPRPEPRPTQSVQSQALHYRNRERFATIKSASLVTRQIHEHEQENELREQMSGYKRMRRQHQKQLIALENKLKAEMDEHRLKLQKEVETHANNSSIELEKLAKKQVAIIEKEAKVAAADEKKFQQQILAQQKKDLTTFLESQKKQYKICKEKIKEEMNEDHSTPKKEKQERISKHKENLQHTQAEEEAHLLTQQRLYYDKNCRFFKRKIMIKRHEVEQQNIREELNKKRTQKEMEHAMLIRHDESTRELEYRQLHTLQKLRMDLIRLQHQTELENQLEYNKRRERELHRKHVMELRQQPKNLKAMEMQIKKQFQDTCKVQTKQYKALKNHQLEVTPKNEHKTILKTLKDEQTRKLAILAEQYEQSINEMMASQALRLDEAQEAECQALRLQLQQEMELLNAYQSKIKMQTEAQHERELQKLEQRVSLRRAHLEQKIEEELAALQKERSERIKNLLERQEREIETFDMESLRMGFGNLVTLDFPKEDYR
MAP kinase-activated protein kinase 2, sequence (P49137 whole entry): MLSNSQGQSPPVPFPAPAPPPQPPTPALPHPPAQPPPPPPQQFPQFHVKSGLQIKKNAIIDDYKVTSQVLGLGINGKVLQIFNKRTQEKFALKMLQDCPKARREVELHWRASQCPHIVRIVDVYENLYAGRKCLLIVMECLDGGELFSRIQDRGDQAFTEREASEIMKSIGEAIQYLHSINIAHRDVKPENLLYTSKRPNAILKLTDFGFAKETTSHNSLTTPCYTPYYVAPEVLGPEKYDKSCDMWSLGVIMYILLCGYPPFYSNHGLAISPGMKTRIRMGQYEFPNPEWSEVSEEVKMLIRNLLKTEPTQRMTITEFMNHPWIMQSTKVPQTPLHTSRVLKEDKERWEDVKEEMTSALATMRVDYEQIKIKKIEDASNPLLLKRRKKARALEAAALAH
Serine/threonine-protein kinase Nek5, sequence (Q6P3R8 whole entry): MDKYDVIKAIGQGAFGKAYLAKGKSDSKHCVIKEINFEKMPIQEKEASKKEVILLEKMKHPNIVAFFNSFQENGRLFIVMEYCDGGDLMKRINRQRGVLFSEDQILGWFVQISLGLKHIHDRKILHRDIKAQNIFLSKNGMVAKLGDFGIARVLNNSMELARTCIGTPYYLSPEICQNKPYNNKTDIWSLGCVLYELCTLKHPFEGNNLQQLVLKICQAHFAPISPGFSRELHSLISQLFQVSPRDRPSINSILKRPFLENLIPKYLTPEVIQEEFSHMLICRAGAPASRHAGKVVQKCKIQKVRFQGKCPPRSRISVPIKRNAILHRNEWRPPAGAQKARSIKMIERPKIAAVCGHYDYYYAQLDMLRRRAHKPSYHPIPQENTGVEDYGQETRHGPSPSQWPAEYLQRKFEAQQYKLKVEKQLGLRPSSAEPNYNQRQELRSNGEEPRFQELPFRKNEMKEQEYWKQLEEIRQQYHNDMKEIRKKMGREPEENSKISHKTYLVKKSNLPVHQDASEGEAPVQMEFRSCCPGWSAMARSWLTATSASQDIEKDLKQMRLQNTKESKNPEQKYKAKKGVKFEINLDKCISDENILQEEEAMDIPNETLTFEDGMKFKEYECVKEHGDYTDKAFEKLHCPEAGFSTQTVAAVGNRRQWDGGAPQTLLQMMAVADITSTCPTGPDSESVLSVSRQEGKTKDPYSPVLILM
Sodium-dependent noradrenaline transporter (Homo sapiens), sequence (P23975 whole entry): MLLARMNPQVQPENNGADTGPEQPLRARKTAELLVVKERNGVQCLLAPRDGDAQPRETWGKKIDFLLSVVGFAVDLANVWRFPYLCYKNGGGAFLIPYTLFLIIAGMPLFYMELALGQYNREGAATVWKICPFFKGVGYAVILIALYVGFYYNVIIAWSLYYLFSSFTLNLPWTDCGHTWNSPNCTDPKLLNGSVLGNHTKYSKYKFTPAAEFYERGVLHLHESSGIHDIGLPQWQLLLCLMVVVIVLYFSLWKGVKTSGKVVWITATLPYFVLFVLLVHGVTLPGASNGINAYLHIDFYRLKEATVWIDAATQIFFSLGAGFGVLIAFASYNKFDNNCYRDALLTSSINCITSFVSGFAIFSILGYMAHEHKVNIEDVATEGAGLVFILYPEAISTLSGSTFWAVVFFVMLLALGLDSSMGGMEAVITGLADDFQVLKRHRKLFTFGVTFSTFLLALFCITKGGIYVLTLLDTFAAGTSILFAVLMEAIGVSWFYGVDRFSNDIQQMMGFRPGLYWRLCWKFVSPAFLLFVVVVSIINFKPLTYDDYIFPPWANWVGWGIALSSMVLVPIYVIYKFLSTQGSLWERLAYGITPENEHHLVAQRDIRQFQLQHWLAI
Calcium/calmodulin-dependent protein kinase type 1B, sequence (Q6P2M8 whole entry): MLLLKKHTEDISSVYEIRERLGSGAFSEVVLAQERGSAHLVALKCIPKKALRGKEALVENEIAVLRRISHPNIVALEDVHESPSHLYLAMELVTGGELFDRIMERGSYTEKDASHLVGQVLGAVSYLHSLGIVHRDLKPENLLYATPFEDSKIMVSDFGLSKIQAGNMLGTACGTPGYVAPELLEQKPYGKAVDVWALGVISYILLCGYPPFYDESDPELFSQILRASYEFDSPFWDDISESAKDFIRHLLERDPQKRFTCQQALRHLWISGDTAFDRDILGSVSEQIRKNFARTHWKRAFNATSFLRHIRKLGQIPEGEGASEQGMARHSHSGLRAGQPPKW

CN1C(=O)[C@@H](N2CCc3c(nn(Cc4ccccc4)c3Br)C2=O)COc2ccccc21 [TP-030-2]
Ki ([1]; read-out: Ki): 3.48 µM
Ki ([1]; read-out: pKi (converted)): 3.24 µM
inhibition at 3 h, 10 µM [2]: 16% (not active)
inhibition at 90 min, 10 µM [3]: 29% (not active)
inhibition (Rattus norvegicus): -6%
inhibition [4]: 2%
IC50 (Activin receptor type-2A): 1 µM
IC50 [5]: 1 µM
IC50 [6]: 1 µM
IC50 [7]: 1 µM
IC50 [8]: 1 µM
IC50 [9]: 1 µM
IC50 [10]: 1 µM
IC50 [11]: 1 µM
IC50 [12]: 1 µM
IC50 [13]: 1 µM
IC50 [14]: 1 µM
IC50 [15]: 1 µM
IC50 [16]: 1 µM
IC50 [17]: 1 µM
IC50 [18]: 1 µM
IC50 [19]: 1 µM
IC50 [20]: 1 µM
IC50 [21]: 1 µM
IC50 [22]: 1 µM
IC50 [23]: 1 µM
IC50 [24]: 1 µM
IC50 [25]: 1 µM
IC50 (SRSF protein kinase 3): 1 µM
IC50 [26]: 1 µM
IC50 [27]: 1 µM
IC50 [28]: 1 µM
IC50 [29]: 1 µM
IC50 [30]: 1 µM
IC50 [31]: 1 µM
IC50 [32]: 1 µM
inhibition [33]: -7.47%
inhibition [34]: 14.7%
inhibition [35]: 33.9%
inhibition [36]: 24%
inhibition [37]: 6%
